Source: patent publication US20100222349A1, “QUINOLINE DERIVATIVES USED TO TREAT INFLAMMATORY AND ALLERGIC DISEASES” (Glaxo Group Limited, priority 2007, published 2010)

Legend:
human H1 receptor [1] = biological target: T1, human H1 receptor (Homo sapiens, UniProt P35367); experiment: Histamine H1 functional antagonist assay: antagonist duration; type: cell-based; conditions: at one or more time points, after washout
T1 construct: expressed in transfected cells
Experimental: The human H1 receptor is cloned using known procedures described in the literature [Biochem. Biophys. Res. Commun., 201(2):894 (1994)]. Chinese hamster ovary (CHO) cells stably expressing the human H1 receptor are generated according to known procedures described in the literature [Br. J. Pharmacol., 117(6):1071 (1996)].
To determine the antagonist duration, cells are cultured overnight in non-coated black-walled clear bottom 96-well tissue culture plates, are washed with PBS and are incubated with a concentration of antagonist chosen to give an approximate DR in the range 30-300. Following the 30 min antagonist incubation period, the cells are washed two or three times with 200 μl of PBS and then 100 μl Tyrodes buffer is added to each well to initiate antagonist dissociation. Following incubation for predetermined times, typically 30-270 min at 37° C., the cells are then washed again with 200 μl PBS and are incubated with 100 μl Tyrodes buffer containing Brilliant Black, probenecid and Fluo-4 for 45 min at 37° C., as described above. After this period, the cells are challenged with histamine in the FLIPR™ as described above. The dose ratio at each time point is used to determine the fractional H1 receptor occupancy by the following equation: fractional receptor occupancy=(DR-1)/DR. The decrease in receptor occupancy over time approximates to a straight line and is analysed by linear regression. The slope of this straight line fit is used as an index of the dissociation rate of the antagonist. The dose ratios for antagonist treated cells and for antagonist treated and washed cells at each time point are used to calculate a relative dose ratio (rel DR) which is also used as an index of antagonist duration. Antagonists with long duration of action produce rel DR values close to 1, and antagonists with short duration of action produce rel DR values that approaches the dose ratio value obtained for antagonist treatment alone.

histamine H3 receptor = biological target: T2, histamine H3 receptor (Homo sapiens, UniProt Q9Y5N1); experiment: Histamine H3 functional antagonist assay (GTPγS, membranes); type: biochemical; conditions: CHO K1 membranes, [35S]-GTPγS, histamine at EC80; read-out: average pKi (pKb) at H3 (converted)
T2 construct: expressed in transfected cells; host or cells: CHO K1 cells with pSwitch/pGeneH3 (GeneSwitch, mifepristone-induced), clone 3H3; membrane preparation
T2 sequence (Q9Y5N1 whole entry, species assumed): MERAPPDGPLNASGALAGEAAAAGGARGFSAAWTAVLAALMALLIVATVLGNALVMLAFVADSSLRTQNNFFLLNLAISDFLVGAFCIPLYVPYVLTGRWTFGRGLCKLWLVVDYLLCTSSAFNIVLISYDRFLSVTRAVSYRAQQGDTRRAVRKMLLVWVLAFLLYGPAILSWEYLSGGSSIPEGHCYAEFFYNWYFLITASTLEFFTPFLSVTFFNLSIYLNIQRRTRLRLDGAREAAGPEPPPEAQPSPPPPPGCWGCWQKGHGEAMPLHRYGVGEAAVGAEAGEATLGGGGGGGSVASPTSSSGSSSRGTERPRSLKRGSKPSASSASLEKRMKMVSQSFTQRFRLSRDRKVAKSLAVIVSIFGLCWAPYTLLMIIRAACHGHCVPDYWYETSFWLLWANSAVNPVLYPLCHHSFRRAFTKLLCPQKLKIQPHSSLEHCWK
Method in brief: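 Membranes came from CHO K1 cells with mifepristone-inducible (10 nM, 18 h) human H3 receptor expression, clone 3H3. Test compounds in DMSO were combined with WGA polystyrene LeadSeeker SPA beads, membranes and GDP.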

human H1 receptor [2] = biological target: T1, human H1 receptor; experiment: Histamine H1 functional antagonist assay: determination of functional pKi values (FLIPR); type: cell-based; conditions: CHO cells expressing human H1 receptor, histamine at EC80, read-out: average pKi (pKb) at H1 (converted)
Method in brief: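 Functional affinities come from concentration-effect curves of inhibited histamine (EC80) calcium responses read by FLIPR. Compound sat 30 min at 37° C on Fluo-4-loaded CHO cells stably expressing human H1 receptor, in probenecid-containing Tyrodes buffer, pH 7.40.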

T1 sequence (P35367 whole entry): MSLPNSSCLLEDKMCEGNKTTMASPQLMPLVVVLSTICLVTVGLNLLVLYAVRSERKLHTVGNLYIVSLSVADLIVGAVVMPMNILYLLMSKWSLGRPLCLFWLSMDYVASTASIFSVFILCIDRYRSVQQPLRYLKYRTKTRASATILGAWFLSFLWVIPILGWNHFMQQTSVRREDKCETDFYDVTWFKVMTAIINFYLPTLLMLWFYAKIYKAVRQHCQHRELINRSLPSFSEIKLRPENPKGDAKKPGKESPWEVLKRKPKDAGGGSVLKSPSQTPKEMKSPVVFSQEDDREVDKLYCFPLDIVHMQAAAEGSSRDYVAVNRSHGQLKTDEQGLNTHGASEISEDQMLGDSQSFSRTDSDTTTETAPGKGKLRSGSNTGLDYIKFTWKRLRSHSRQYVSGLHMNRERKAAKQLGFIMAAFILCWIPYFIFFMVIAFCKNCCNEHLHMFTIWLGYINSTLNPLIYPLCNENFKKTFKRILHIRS

Structure (SMILES)	duration of action compared with azelastine (human H1 receptor [1])	Ki (histamine H3 receptor) [nM]	Ki (human H1 receptor [2]) [nM]
CCCCc1cc(OC2CCN(C[C@H]3CC[C@H](C(=O)N4CCCCC4)CC3)CC2)c2ncccc2c1 [Example 44, 6-Butyl-8-[(1-{[trans-4-(1-piperidinylcarbonyl)cyclohexyl]methyl}-4-piperidinyl)oxy]quinoline]	longer duration of action than azelastine	> 316	< 10
CCCCc1cc(OC2CCN(CCNC(=O)C(C)(C)C)CC2)c2ncccc2c1 [Example 72, N-(2-{4-[(6-butyl-8-quinolinyl)oxy]-1-piperidinyl}ethyl)-2,2-dimethyl propanamide]	longer duration of action than azelastine	> 316	< 10
